Entries after “also recorded” stand apart in the source; their conditions may differ.
What was measured:
[1] = Gly-MCA incubation with fecal extract (hydrolysis by gut bacteria); format: in vitro ADME, mouse; settings: 50 μM Gly-MCA; 0.1 mg/mL fecal extract; TβMCA positive control
Method: Fecal proteins were prepared from the fecal sample (0.5 g) in pH 7.4 PBS (5.0 ml) using sonication. Incubation was carried out in 3 mM sodium acetate buffer, pH 5.2, containing 0.1 mg/ml fecal protein and 50 μM Gly-MCA or T-β-MCA in a final volume of […]. After a 20-min incubation at 37° C., the samples were plunged into dry ice to stop the reaction. 100 of μL methanol was directly added to the […] reaction mixture. After centrifuging at 14,000 g for 20 min, […] of the supernatant was transferred to an autosampler vial subjected to analysis by a UPLC system coupled with a XEVO triple quadrupole tandem mass spectrometer (Waters Corp., Milford, Mass.).
Fecal extracts were prepared as described above. Gly-MCA (50 μM) was incubated with fecal extract (0.1 mg/mL). The negative control was fecal extract alone. The positive control was fecal extract (0.1 mg/mL) and TβMCA acid (50 μM).

[2] = Gly-MCA in mouse ileum after oral gavage; format: in vivo; settings: oral gavage 0, 1, 5, 50 mg/kg in corn oil
Method: Gly-MCA was given to mice via oral gavage at dosages of 0, 1, 5, and 50 mg/kg of Gly-MCA, with the Gly-MCA dosed in corn oil. Gly-MCA was detected using ultra performance liquid chromatography-electrospray ionization-quadrupole time-of-flight mass spectrometry (UPLC-ESI-QTOFMS).

[3] = liver toxicity 24 h after Gly-MCA dosing (ALT, AST); format: in vivo, mouse; settings: 1, 5, 50 mg/kg; after 24 h; vs vehicle
Method: Mice were dosed with vehicle or Gly-MCA at 1 mg/kg, 5 mg/kg, and 50 mg/kg. After 24 h, […] (ALT) and […] (AST) levels were determined and the results shown in FIG. 37.

[4] = system: HFD-treated C57BL/6N mice; assay: Gly-MCA in mice fed a high-fat diet (prevention of obesity, insulin resistance, NAFLD); format: in vivo, mouse
From the text: (§1) High-fat diet (HFD) (60% kcal consisting of fat) was purchased from Bioserv. […] Fxr^fl/fl and Fxr^ΔIE (Kim et al., J. Lipid Res. 48:2664-2672, 2007) mice were backcrossed with C57BL/6N mice for over 10 generations. For the antibiotic (the combination of bacitracin, neomycin, and streptomycin) study, male C57BL/6N mice from 6 weeks of age were fed a high-fat diet (“HFD) and administered 0.1% (w/v) of each compound (the combination of bacitracin, neomycin, and streptomycin) in the drinking water. […] For TβMCA in vivo, male C57BL/6N mice from 6 weeks of age were fed a HFD and treated with the antibiotics (0.1% of each compound of bacitracin, neomycin, and streptomycin combination) for 3 days. Vehicle (saline), TCA (400 mg/kg body weight, dissolved in saline) or a combination of TCA and TβMCA (400 mg/kg body weight of each compound, dissolved in saline) were orally administered to the mice and followed by a second dose 12 h later. The mice were killed 2 h later for tissue collection. For the Gly-MCA study, Gly-MCA was custom synthesized. Bacon-flavored dough pills were produced as described (Walker et al., Toxicol. Appl. Pharmacol. 260:65-69, 2012) for oral administration of Gly-MCA (0.25 mg Gly-MCA/pill, dose of 10 mg/kg). Mice were trained to eat the dough pills prior to the study. For the prevention of obesity, insulin resistance and NAFLD, male wild-type (WT) C57BL/6N mice, 6- to 8-weeks-old, were fed a high-fat diet (Bio-Serv, Frenchtown, N.J.; 60 kcal % fat) from the age of 6 weeks and were orally administered with vehicle (control pills) or Gly-MCA (0.25 mg/pill/day, dose 10 mg/kg). C57BL/6N mice fed a high-fat diet for 12 weeks were administered (0.25 mg Gly-MCA/pill, dose of 5 mg/kg). Leptin-deficient db/db mice, 6- to 8-weeks-old, fed a chow diet, were administered Gly-MCA (0.25 mg/pill/day, 10 mg/kg). Mice were housed individually in their home cages. Cumulative food intake and TEEbal were measured for 1 week in vehicle and Gly-MCA-treated mice from 6 to 7 weeks of HFD. TEEbal was measured as previously described (Ravussin et al., Int. J. Obesity 37:399-403, 2013).
The mucosa of intestine was gently scraped and liver was taken and both were flash frozen in liquid nitrogen and stored at −80° C. until RNA was prepared. RNA was extracted from frozen intestine and liver using TRIzol reagent (Invitrogen, Carlsbad, Calif.). cDNA was synthesized from 1 μg total RNA using Superscript II reverse transcriptase (Invitrogen, Carlsbad, Calif.). qPCR primers were designed with qPrimerDepot. Measured mRNA levels were normalized to those of 18S ribosomal RNA and expressed as fold change relative to those of control group.
Lipidomics analysis: For serum lipidomics analysis 25 μl serum were extracted by 4-fold cold chloroform:methanol (2:1) solution containing 2 μM LPC (17:0), PC (17:0), SM (17:0) and CER (17:0) (Avanti Polar Lipids, Alabaster, Ala.) as internal standards. The samples were vortexed for 30 s and then allowed to stand for 5 min at room temperature. The mixture was centrifuged at 13,000 rpm for 5 min and then the lower organic phase was collected and evaporated at room temperature under vacuum. The residue was dissolved in chloroform:methanol (1:1), followed by diluting with isopropanol:acetonitrile:H2O (2:1:1) containing 2 μM PC (17:0) prior to UPLC-MS analysis. For tissue lipidomics analysis, about 50 mg of accurately weighted tissues were homogenized with 700 μL methanol: H2O (4:3) solution and then extracted using 800 μL chloroform containing 2 μM LPC (17:0), SM (17:0) and CER (17:0) as internal standards. The homogenate was incubated at 37° C. for 20 min followed by centrifuged for 20 min at 13,000 rpm. The lower organic phase was transferred to a new tube and dried under vacuum. The residue was suspended with 100 chloroform:methanol (1:1) solution and then diluted with isopropanol:acetonitrile:H2O (2:1:1) solution containing 2 μM PC (17:0) before injection. […]

[5] = system: db/db mice; assay: Gly-MCA in leptin receptor-deficient (db/db) mice; format: in vivo, mouse
From the text: as §1

[6] = system: HFD-induced obese mice; assay: Gly-MCA in C57BL/6N mice made obese by 12 weeks of high-fat diet; format: in vivo, mouse; settings: 5 mg/kg
From the text: as §1

SMILES: C[C@H](CCC(=O)NCC(=O)O)[C@H]1CC[C@H]2[C@@H]3[C@@H](O)[C@@H](O)[C@@H]4C[C@H](O)CC[C@]4(C)[C@H]3CC[C@]12C [Gly-MCA, glycine-β-muricholic acid]
- stability: hydrolysis to β-MCA on incubation with fecal extract [1]: stable in the intestine
- Gly-MCA detected in mouse ileum (stability in intestine) [2]: stable in the intestine
- liver toxicity (serum ALT and AST levels) [3]: do not develop significant liver toxicity; also recorded: did not exhibit significant liver toxicity
- Gly-MCA levels in the feces ([4]; Gly-MCA treatment for 9 weeks): markedly increased
- Gly-MCA levels in the ileum ([4]; Gly-MCA treatment for 9 weeks): markedly increased
- liver weights ([4]; HFD): decreased
- hepatic lipid droplets (liver histology) ([4]; HFD 7 weeks): marked reduction in hepatic lipid droplets
- Shp and Fgf15 mRNAs in the ileum ([4]; HFD 9 weeks): decreased
- expression of Shp mRNA in the liver ([4]; HFD 9 weeks): similar
- intestinal mRNAs of ceramide de novo synthesis-related genes (Sptic3, Cers4, Degs1, Smpd3) ([4]; HFD 9 weeks): significantly lower
- serum ALT levels ([4]; HFD 9 weeks): significantly decreased
- serum AST levels ([4]; HFD 9 weeks): significantly decreased
- serum triglyceride levels ([4]; HFD 9 weeks): remained similar
- body weight gain ([4]; HFD, 10 mg/kg oral, after one week of treatment): reduced body weight gain
- ITT: insulin sensitivity ([4]; HFD, 6 to 7 weeks): significantly increased
- energy expenditure (TEEbal) ([4]; HFD, 6 to 7 weeks): increased the energy expenditure significantly
- food intake ([4]; HFD, 6 to 7 weeks): comparable
- absolute fat mass (NMR) ([4]; HFD, after 7 weeks of treatment): significantly decreased
- hepatic triglyceride contents decreased to ([4]; HFD, relative to vehicle): approximately 51%
- GTT: blood glucose levels after glucose loading ([4]; after 6 weeks of HFD): significantly reduced blood glucose levels
- absolute fat mass (NMR) ([5]; 6 weeks): significantly decreased
- hepatic lipid droplets (liver histology) ([5]; 6 weeks): significant decrease in hepatic lipid droplets
- liver TG contents ([5]; 6 weeks): dramatically improved
- liver weights ([5]; 6 weeks): decreased
- serum ALT levels ([5]; 6 weeks): significantly decreased
- serum AST levels ([5]; 6 weeks): significantly decreased
- serum triglyceride levels ([5]; 6 weeks): remained similar
- body weight ([5]; Gly-MCA 6 weeks, 10 mg/kg): reduced body weight
- body weight gain ([6]; HFD-induced obese mice, from two weeks of treatment): reduced body weight gain
- absolute fat mass (NMR) ([6]; obese mice, 6 weeks): significantly decreased
- hepatic lipid droplets (liver histology) ([6]; obese mice, 6 weeks): marked amelioration in hepatic lipid droplets
- liver weights ([6]; obese mice, 6 weeks): reduced

From patent US10233209B2, “Inhibitors of the farnesoid x receptor and uses in medicine” (The United States of America, as represented by the …, priority 2013, dated 2019)
